For 15 molecules, T/C results are on record in PubChem BioAssay AID328 (DTP/NCI, 2004).

This test deals with BDF1 mice, P388 leukemia ip, median survival T/C. As to the kind of experiment: NCI In Vivo Anticancer Drug Screen. Data for tumor model P388 Leukemia (intraperitoneal) in B6D2F1 (BDF1) mice. The note with it: endpoint: median survival time, higher = longer survival. An outline of the steps: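 Antitumour effect was judged in vivo: survival in drug-treated mice, normalised to that of vehicle-dosed controls, gives the reported T/C.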

Setting [1] is: dose: 50.0 mg/kg/injection, schedule: Q01DX009 (ip), vehicle: saline with Tween-80.
[2] abbreviates: dose: 100.0 mg/kg/injection, schedule: Q01DX009 (ip), vehicle: saline with Tween-80.
Where [3] appears, read: dose: 200.0 mg/kg/injection, schedule: Q01DX009 (ip), vehicle: saline with Tween-80.
The mark [4] stands for this setting: dose: 200.0 mg/kg/injection, schedule: Q04DX002 (ip), vehicle: saline with Tween-80.
[5] abbreviates: dose: 400.0 mg/kg/injection, schedule: Q04DX002 (ip), vehicle: saline with Tween-80.
The mark [6] stands for this setting: dose: 6.25 mg/kg/injection, schedule: Q01DX009 (ip), vehicle: saline.
[7] abbreviates: dose: 12.5 mg/kg/injection, schedule: Q01DX009 (ip), vehicle: saline.
Setting [8] is: dose: 25.0 mg/kg/injection, schedule: Q01DX009 (ip), vehicle: saline with Tween-80.

Molecules are shown by their SMILES. “And” between values parts separate entries of the source, which are not always exact repeats. Equal values may be shown once. Inconclusive results and toxic doses are left out.

`Nc1ccc(Cl)c(Cl)c1`: the T/C by setting is: under setting [1], 98 % of control; (dose: 50.0 mg/kg/injection, schedule: Q01DX009 (ip), vehicle: saline) 106 % of control; under setting [2], 104 % of control; (dose: 100.0 mg/kg/injection, schedule: Q01DX009 (ip), vehicle: saline) 118 % of control; under setting [3], 104 % of control.

Consider `COc1cc2c(cc1OC)C1CCc3cc4c(cc3C1N=C2)OCO4` (stereo unspecified), for which the T/C (dose: 20.0 mg/kg/injection, schedule: Q01DX009 (ip), vehicle: saline) was 100 % of control; the T/C (dose: 40.0 mg/kg/injection, schedule: Q01DX009 (ip), vehicle: saline) was 105 % of control; the T/C (dose: 80.0 mg/kg/injection, schedule: Q01DX009 (ip), vehicle: saline) is 105 % of control; the T/C (dose: 120.0 mg/kg/injection, schedule: Q01DX009 (ip), vehicle: saline) is 105 % of control; the T/C (dose: 240.0 mg/kg/injection, schedule: Q01DX009 (ip), vehicle: saline) is 100 % of control.

Take `Cc1cc(=O)oc2cc3oc(N(C)c4ccccc4)nc(=O)c3cc12`: the T/C was 100 % of control (dose: 100.0 mg/kg/injection, schedule: Q04DX002 (ip), vehicle: saline with Tween-80); 92 % of control under setting [4]; 102 % of control under setting [5].

Consider `CCCSc1ccc([N+](=O)[O-])cc1`, for which the T/C reads like this: under setting [4], 93 % of control; under setting [5], 101 % of control.

Turning to `O=C1CCCC(=O)N1CCCCCCN1C(=O)CCCC1=O`, the T/C is, setting by setting: under setting [1], 104 % of control; under setting [2], 112 % of control.

Consider `Cc1cc(Cl)nc(Nc2ccccc2)n1`, for which the T/C reads like this: (dose: 3.12 mg/kg/injection, schedule: Q01DX009 (ip), vehicle: DMSO) 100 % of control; (dose: 6.25 mg/kg/injection, schedule: Q01DX009 (ip), vehicle: DMSO) 95 % of control and 100 % of control; (dose: 6.25 mg/kg/injection, schedule: Q04DX003 (ip), vehicle: DMSO) 100 % of control; (dose: 12.5 mg/kg/injection, schedule: Q01DX009 (ip), vehicle: DMSO) 100 % of control; (dose: 12.5 mg/kg/injection, schedule: Q04DX003 (ip), vehicle: DMSO) 108 % of control; (dose: 25.0 mg/kg/injection, schedule: Q01DX009 (ip), vehicle: DMSO) 95 % of control. Moreover, under “dose: 25.0 mg/kg/injection, schedule: Q04DX003 (ip), vehicle: DMSO”, the T/C was 91 % of control.

Turning to `c1ccc(C[n+]2ccc3ccccc3c2)cc1`, the T/C is 100 % of control under setting [6]; 90 % of control under setting [7]; 95 % of control (dose: 12.5 mg/kg/injection, schedule: Q04DX003 (ip), vehicle: saline); 118 % of control (dose: 25.0 mg/kg/injection, schedule: Q01DX009 (ip), vehicle: saline); 100 % of control (dose: 25.0 mg/kg/injection, schedule: Q04DX003 (ip), vehicle: saline).

Consider `CC1(C)N=C(N)N=C(N)N1c1ccc(CCCCc2ccc(S(=O)(=O)F)cc2Cl)c(Cl)c1`, for which the T/C by setting is: (dose: 5.0 mg/kg/injection, schedule: Q01DX009 (ip), vehicle: saline with Tween-80) 157 % of control; (dose: 7.5 mg/kg/injection, schedule: Q01DX009 (ip), vehicle: saline with Tween-80) 150 % of control and 166 % of control; (dose: 8.0 mg/kg/injection, schedule: Q04DX003 (ip), vehicle: saline with Tween-80) 168 % of control; (dose: 11.5 mg/kg/injection, schedule: Q01DX009 (ip), vehicle: saline with Tween-80) 200 % of control; (dose: 12.0 mg/kg/injection, schedule: Q04DX003 (ip), vehicle: saline with Tween-80) 186 % of control; (dose: 17.0 mg/kg/injection, schedule: Q01DX009 (ip), vehicle: saline with Tween-80) 188 % of control and 191 % of control. Further, the T/C runs as follows: (dose: 18.0 mg/kg/injection, schedule: Q04DX003 (ip), vehicle: saline with Tween-80) 200 % of control; under setting [8], 208 % of control and 220 % of control; (dose: 26.0 mg/kg/injection, schedule: Q04DX003 (ip), vehicle: saline with Tween-80) 200 % of control; (dose: 26.5 mg/kg/injection, schedule: Q04DX003 (ip), vehicle: saline with Tween-80) 195 % of control; (dose: 37.0 mg/kg/injection, schedule: Q01DX009 (ip), vehicle: saline with Tween-80) 176 % of control; (dose: 40.0 mg/kg/injection, schedule: Q04DX003 (ip), vehicle: saline with Tween-80) 209 % of control. Besides, the T/C runs as follows: under setting [1], 241 % of control; (dose: 60.0 mg/kg/injection, schedule: Q04DX003 (ip), vehicle: saline with Tween-80) 176 % of control; (dose: 88.0 mg/kg/injection, schedule: Q04DX003 (ip), vehicle: saline with Tween-80) 209 % of control; (dose: 90.0 mg/kg/injection, schedule: Q04DX003 (ip), vehicle: saline with Tween-80) 180 % of control; under setting [2], 116 % of control; (dose: 133.0 mg/kg/injection, schedule: Q04DX003 (ip), vehicle: saline with Tween-80) 272 % of control. For the same molecule, for the setting “dose: 200.0 mg/kg/injection, schedule: Q04DX003 (ip), vehicle: saline with Tween-80”, the T/C was 272 % of control.

For the molecule `COc1ccc2c3c(ccc2c1)C(=O)C(C)(C#N)CC3` (stereo unspecified), the T/C reads like this: (dose: 50.0 mg/kg/injection, schedule: Q01DX009 (ip), vehicle: Klucel (hydroxypropylcellulose) (HPC)) 104 % of control; (dose: 100.0 mg/kg/injection, schedule: Q01DX009 (ip), vehicle: Klucel (hydroxypropylcellulose) (HPC)) 95 % of control; (dose: 100.0 mg/kg/injection, schedule: Q04DX003 (ip), vehicle: other) 95 % of control; (dose: 200.0 mg/kg/injection, schedule: Q01DX009 (ip), vehicle: Klucel (hydroxypropylcellulose) (HPC)) 100 % of control; (dose: 200.0 mg/kg/injection, schedule: Q04DX003 (ip), vehicle: other) 100 % of control; (dose: 400.0 mg/kg/injection, schedule: Q04DX003 (ip), vehicle: other) 95 % of control.

Regarding `C/C(=C\c1ccccc1)C(C)(C)C(=O)O`, the T/C was 102 % of control under setting [1], 96 % of control under setting [2] and 99 % of control under setting [3].

Take `CCCCCCOc1ccc(OCCCC[N+]2(CC)CCCCC2)cc1`: the T/C is, setting by setting: under setting [6], 103 % of control; under setting [7], 110 % of control.

`O=[N+]([O-])c1ccc(N/N=C(\c2ccccc2)c2ccsc2)c([N+](=O)[O-])c1`: the T/C (dose: 6.25 mg/kg/injection, schedule: Q01DX009 (ip), vehicle: saline with Tween-80) is 103 % of control; the T/C (dose: 12.5 mg/kg/injection, schedule: Q01DX009 (ip), vehicle: saline with Tween-80) is 100 % of control; the T/C under setting [8] was 96 % of control; the T/C under setting [1] was 92 % of control.

Turning to `C/C(=N\N1CCCCCC1)c1ccccc1`, the T/C is, setting by setting: (dose: 50.0 mg/kg/injection, schedule: Q04DX003 (sc), vehicle: olive oil, sesame oil, peanut oil) 95 % of control; (dose: 100.0 mg/kg/injection, schedule: Q04DX003 (sc), vehicle: olive oil, sesame oil, peanut oil) 95 % of control; (dose: 200.0 mg/kg/injection, schedule: Q04DX003 (sc), vehicle: olive oil, sesame oil, peanut oil) 91 % of control.

As to `CC(=O)OCCC/C(=C/c1ccc(/C=C(\CCCOC(C)=O)[N+](=O)[O-])cc1)[N+](=O)[O-]`, the T/C was 96 % of control (dose: 50.0 mg/kg/injection, schedule: Q04DX003 (ip), vehicle: Klucel (hydroxypropylcellulose) (HPC)); 101 % of control (dose: 100.0 mg/kg/injection, schedule: Q04DX003 (ip), vehicle: Klucel (hydroxypropylcellulose) (HPC)); 101 % of control (dose: 200.0 mg/kg/injection, schedule: Q04DX003 (ip), vehicle: Klucel (hydroxypropylcellulose) (HPC)).

Regarding `CC1([CH2][Hg][Cl])Cc2ccccc2O1` (stereo unspecified), the T/C (dose: 1.56 mg/kg/injection, schedule: Q04DX003 (ip), vehicle: saline with Tween-80) was 92 % of control and the T/C (dose: 3.13 mg/kg/injection, schedule: Q04DX003 (ip), vehicle: saline with Tween-80) is 88 % of control.
